Laboratory results reported in patent US11090386B2, “Method for suppressing bitterness of quinoline derivative” (Eisai R&D Management Co., Ltd., priority 2015, dated 2021).
Structures can show the parent of a compound that is named as a salt.

Columns and labels:
[1] = Relative comparison of bitterness with taste perception apparatus (relative to Reference Example 7); settings: aqueous solution of lenvatinib mesylate at a concentration of 1.225 mg/mL or more
Procedure: Herein, the “bitterness” of Compound 1 or the pharmaceutically acceptable salt thereof is measured by the following method. A solution of Compound 1 at a concentration of 8 mg/mL as a free form is prepared by dissolving Compound 1 or the pharmaceutically acceptable salt thereof in a 10 mM potassium chloride aqueous solution. To the thus obtained solution, an additive is added if necessary, and the resultant is stirred for 30 minutes and then centrifuged to give a liquid phase component. The bitterness of the liquid phase component is measured using a taste sensor (ACO) for measuring bitterness, and the thus obtained value is used as a bitterness index.
As a blank solution for correction, a 10 mM potassium chloride aqueous solution was subjected to the measurement. […] Relative bitterness to Reference Example 7 was calculated in accordance with the following expression, and an average of the three measurement values is shown in Table 4 and FIG. 1. It is noted that the relative bitterness was calculated using merely data obtained through a series of continuous measurements. Relative bitterness to Reference Example 7(%)=(Measured value of each sample−Measured value of 10 mM potassium chloride aqueous solution)/(Measured value of Reference Example 7—Measured value of 10 mM potassium chloride aqueous solution)×100%

[2] = Bitterness measurement with taste perception apparatus, relative bitterness to Comparative Example 1; format: physicochemical; settings: AC0 taste sensor; lenvatinib mesylate 9.8 mg/mL (8 mg/mL free form) in 10 mM potassium chloride aqueous solution, additive added, stirred 30 minutes, supernatant; average of three measurements
Procedure: Herein, the “bitterness” of Compound 1 or the pharmaceutically acceptable salt thereof is measured by the following method. A solution of Compound 1 at a concentration of 8 mg/mL as a free form is prepared by dissolving Compound 1 or the pharmaceutically acceptable salt thereof in a 10 mM potassium chloride aqueous solution. To the thus obtained solution, an additive is added if necessary, and the resultant is stirred for 30 minutes and then centrifuged to give a liquid phase component. The bitterness of the liquid phase component is measured using a taste sensor (ACO) for measuring bitterness, and the thus obtained value is used as a bitterness index. […]
The measurement with the taste perception apparatus was performed four times on each sample, and three measurement results of the second to fourth measurements were used for the analysis. […] It is noted that the relative bitterness was calculated using merely data obtained through a series of continuous measurements. Relative bitterness to Comparative Example 1(%)=(Measured value of each sample−Measured value of 10 mM potassium chloride aqueous solution)/(Measured value of Comparative Example 1—Measured value of 10 mM potassium chloride aqueous solution)×100%

Row | Relative Bitterness to Comparative Example 1 (%) [2] [%] | SMILES | bitterness compared with a 0.1 mM quinine hydrochloride aqueous solution [1]
1 |  | COc1cc2nccc(Oc3ccc(NC(=O)NC4CC4)c(Cl)c3)c2cc1C(N)=O [lenvatinib mesylate, Lenvatinib Mesylate] | more bitter than a 0.1 mM quinine hydrochloride aqueous solution
2 | 100 | COc1cc2nccc(Oc3ccc(NC(=O)NC4CC4)c(Cl)c3)c2cc1C(N)=O [Comparative Example 1, Lenvatinib Mesylate] | 
